# Measurements published in patent US20060154235A1, “Human hepatocyte-like cells and uses thereof” (Takahiro Ochiya, priority 2005, published 2006).
# Test system: CYP1A1
# Test: P450-GLO activity assay, CYP1A1 induction in hMSC-derived hepatocytes
# Conditions: inducer for 2 days
smiles,measurement,value
Cc1ccc2cc3c(ccc4ccccc43)c3c2c1CC3 [3-methylcholanthrene],CYP1A1 activity after inducer treatment,induced
